Laboratory results taken from patent US20100048638A1, “HEPARAN SULFATE INHIBITORS” (ZACHARON PHARMACEUTICALS, INC., priority 2008, published 2010).

Assays:
[1] = system: FGF2 binding to heparan sulfate in human cervical cancer cells (HeLa); experiment: FGF2 binding to heparan sulfate in HeLa cells, flow cytometry; format: cell-based; settings: various concentrations
Experimental: (§1) FIG. 2 illustrates the impact of 4-(4-(3,4-dimethoxyphenyl)-6-phenylpyrimidin-2-yl)morpholine on the ability of FGF2 to bind to heparan sulfate in human cervical cancer cells (HeLa). FGF2 binding to heparan sulfate is measured by culturing HeLa cells in the presence of the heparan sulfate modulator. After 2 days of growth, the cells are released with 5 mM EDTA and probed with biotinylated FGF2 for 30 minutes on ice. After washing unbound FGF2, bound FGF2 is detected with streptavidin-Cy5-PE. After washing to remove unbound streptavidin-Cy5-PE, the bound probe is quantified using a flow cytometry. The heparan sulfate inhibitors are tested on at least three independent occasions, in duplicate over a dose range. Heparan sulfate specificity is determined by probing with lectins to other glycan classes (chondroitin sulfate, O-linked, N-linked, etc.). FIG. 3 illustrates the impact of 4-(4-(3,4-dimethoxyphenyl)-6-phenylpyrimidin-2-yl)morpholine on the sulfation of heparan sulfate found in human cervical cancer cells (HeLa). The sulfation of heparan sulfate is determined by culturing HeLa cells in the presence of the heparan sulfate modulator. Heparan sulfate is isolated from treated and untreated cells by lysing the cells in 0.1 N NaOH. After neutralization, the cell lysate is treated with pronase to degrade the core proteins. Subsequently, the heparan sulfate is purified on diethylaminoethyl (DEAE) resin, eluted with 1.0 M NaCl, desalted using gel filtration and dried. To characterize the composition of heparan sulfate produced in the presence of the heparan sulfate modulator, the isolate heparan sulfate is digested to disaccharides using a blend of heparin lyase I, II, and III (from flavobacterium heparinum). The disaccharides are quantified by HPLC using a propac PA1 column using known heparan sulfate disaccharides as standards. Specifically, FIG. 3A illustrates the impact of 4-(4-(3,4-dimethoxyphenyl)-6-phenylpyrimidin-2-yl)morpholine on the amount of specific disaccharide units; and FIG. 3B illustrates the impact of 4-(4-(3,4-dimethoxyphenyl)-6-phenylpyrimidin-2-yl)morpholine on the amount of specific glucosamine and uronic acid modifications.
as §1, with “FIG. 4” for “FIG. 2”, “of 7-((3-chlorophenyl)(pyridin-2-ylamino)methyl)-2-methylquinolin-8-ol” for “of 4-(4-(3,4-dimethoxyphenyl)-6-phenylpyrimidin-2-yl)morpholine”, “FIG. 5” for “FIG. 3”, “heparinum). […]” for “heparinum). The disaccharides are quantified by HPLC using a propac PA1 column using known heparan sulfate disaccharides as standards. Specifically, FIG. 3A illustrates the impact of 4-(4-(3,4-dimethoxyphenyl)-6-phenylpyrimidin-2-yl)morpholine on the amount of specific disaccharide units; and FIG. 3B illustrates the impact of 4-(4-(3,4-dimethoxyphenyl)-6-phenylpyrimidin-2-yl)morpholine on the amount of specific glucosamine and uronic acid modifications.”

[2] = system: cultured primary human fibroblast from MPS patients; experiment: In vitro MPS model: accumulation of GAG fragments in fibroblasts; format: cell-based
Text: Substrate reduction therapy (SRT) is validated for MPS. The non-specific inhibitor of sulfation, sodium chlorate is used herein for such validation. […] In certain instances, in vitro MPS models used herein are based on measuring the accumulation of GAG fragments in cultured primary human fibroblast from MPS patients. In some instances, the GAGs that accumulate in MPS patients are much smaller than normal tissue GAGs and they lack a core protein on their reducing termini. Based on these features the in vitro MPS model used in certain instances herein is based on a method of tagging reducing ends of the GAGs with a detectable label and analyzing (i.e., detecting and/or measuring) the detectable labels using a device suitable for detecting the label (e.g., an HPLC with a fluorimeter).

[3] = system: 6-O sulfation of heparan sulfate; experiment: Change in the structure (sulfation) of heparan sulfate in cultured human cells; format: cell-based; settings: FIG. 21A
Experimental: FIG. 2 illustrates the impact of 4-(4-(3,4-dimethoxyphenyl)-6-phenylpyrimidin-2-yl)morpholine on the ability of FGF2 to bind to heparan sulfate in human cervical cancer cells (HeLa). FGF2 binding to heparan sulfate is measured by culturing HeLa cells in the presence of the heparan sulfate modulator. After 2 days of growth, the cells are released with 5 mM EDTA and probed with biotinylated FGF2 for 30 minutes on ice. After washing unbound FGF2, bound FGF2 is detected with streptavidin-Cy5-PE. After washing to remove unbound streptavidin-Cy5-PE, the bound probe is quantified using a flow cytometry. The heparan sulfate inhibitors are tested on at least three independent occasions, in duplicate over a dose range. Heparan sulfate specificity is determined by probing with lectins to other glycan classes (chondroitin sulfate, O-linked, N-linked, etc.). FIG. 3 illustrates the impact of 4-(4-(3,4-dimethoxyphenyl)-6-phenylpyrimidin-2-yl)morpholine on the sulfation of heparan sulfate found in human cervical cancer cells (HeLa). The sulfation of heparan sulfate is determined by culturing HeLa cells in the presence of the heparan sulfate modulator. […] The disaccharides are quantified by HPLC using a propac PA1 column using known heparan sulfate disaccharides as standards. […]
(§2) After sacrifice, the liver and tumor were analyzed for changes in the structure of heparan sulfate.

[4] = system: heparan sulfate; experiment: Heparan sulfate structure in liver and tumor after sacrifice, SKOV3 model; format: in vivo, mice
Experimental: as §2

[5] = system: SKOV3 cells; experiment: Human ovarian cancer model, SKOV3 subcutaneous tumors in female nude mice; format: in vivo; settings: 1, 3 and 10 mg/kg/day, two IP injections daily
Experimental: Compound 9 was tested for anti-cancer activity in a Human ovarian cancer model. Briefly, 5 million SKOV3 cells were injected in 100 ul mixed with matrigel subcutaneously into female nude mice. The tumors were allowed to grow to 0.1 cm^3 then the mice were randomized into four groups (Vehicle, 1, 3, and 10 mg/kg/day). Each group received the indicated daily dose divided into two IP injections. Vehicle alone received the formulation only.

[6] = system: synthesis of PAPs / heparan sulfate sulfation; settings: cited from earlier work
[7] = in vitro model of MPS IIIA, human MPS IIIA fibroblasts

SMILES	inhibition of FGF-2 binding to heparan sulfate [1]	inhibition of heparan sulfate biosynthesis ([2]; human MPS IIIA fibroblasts)	GAG accumulation [2, 7]	also measured
COc1ccc(-c2cc(-c3ccccc3)nc(N3CCOCC3)n2)cc1OC [compound 1, 4-(4-(3,4-dimethoxyphenyl)-6-phenylpyrimidin-2-yl)morpholine]	inhibition of FGF-2 binding	inhibition of heparan sulfate biosynthesis	reduce GAG accumulation	–
Cc1ccc2ccc(C(Nc3ccccn3)c3cccc(Cl)c3)c(O)c2n1 (stereo not drawn) [compound 2, 7-((3-chlorophenyl)(pyridin-2-ylamino)methyl)-2-methylquinolin-8-ol]	inhibition of FGF-2 binding	–	–	–
CCc1cc(=O)oc2cc(Oc3ccc([N+](=O)[O-])cc3C(F)(F)F)ccc12 [compound 6, 4-ethyl-7-(4-nitro-2-(trifluoromethyl)phenoxy)-2H-chromen-2-one]	inhibition of FGF-2 binding	–	–	–
O=C(NC(=S)N(Cc1ccccc1)Cc1ccccc1)c1cccc(Cl)c1 [compound 8]	inhibition of FGF-2 binding	inhibition of heparan sulfate biosynthesis	reduce GAG accumulation	–
CC(C)C(=O)NC(c1cccs1)c1cc([N+](=O)[O-])c2cccnc2c1O (stereo not drawn) [compound 5, 7-((thiophen-2-yl)(isobutoylamino)methyl)-5-nitroquinolin-8-ol]	inhibition of FGF-2 binding	inhibition of heparan sulfate biosynthesis	reduce GAG accumulation	–
C[S+]([O-])c1ccc(-c2nc(-c3ccc(F)cc3)c(-c3ccncc3)[nH]2)cc1 (stereo not drawn) [compound 9]	–	–	–	6-O sulfation of heparan sulfate [3]: inhibits the 6-O sulfation of heparan sulfate; heparan sulfate biosynthesis in liver ([4]; liver of treated animals, after sacrifice, 1, 3 and 10 mg/kg/day IP): altered in the liver of treated animals in a dose dependent manner; changes in the structure of heparan sulfate in tumor ([4]; small tumor remaining in treated animals, after sacrifice): No changes were detected; tumor growth [5]: blocked tumor growth at all doses tested
[Na+].[O-][Cl+2]([O-])[O-] [sodium chlorate, reference compound]	–	–	reduction of GAG accumulation	synthesis of PAPs (sulfate donor) ([6]; 30-60 mM): inhibits the synthesis of PAPs; sulfation of heparan sulfate produced by cells ([6]; cells grown in the presence of the substance): reduced sulfation; GAG accumulation ([2]; in vitro model of MPS I): reduction of GAG accumulation; GAG accumulation ([2]; in vitro model of MPS II): reduction of GAG accumulation
CC(C)(C)C1CCc2c(sc3nc(C(F)(F)F)[nH]c(=O)c23)C1 (stereo not drawn) [compound 7]	inhibition of FGF-2 binding	inhibition of heparan sulfate biosynthesis	reduce GAG accumulation	–
Cc1ccc2ccc(C(Nc3ccccn3)c3ccccc3F)c(O)c2n1 (stereo not drawn) [compound 3, 7-((2-fluorophenyl)(pyridin-2-ylamino)methyl)-2-methylquinolin-8-ol]	inhibition of FGF-2 binding	–	–	–
